Source: PMC5666896, “Molecular Docking and Screening Studies of New Natural Sortase A Inhibitors” (International Journal of Molecular Sciences, 2017)
Entries after “also recorded” stand apart in the source; their conditions may differ.

How the values were obtained:
SrtA = molecular target: T1, SrtA (Staphylococcus aureus, UniProt Q2FV99); assay: Sortase A activity assay (FRET, SensoLyte 520 kit); format: biochemical, S. aureus
T1 construct: purchased Anaspec, San Jose, CA, USA
Method: The inhibitory activity of all of the compounds was determined by quantifying the increase in fluorescence intensity upon a cleavage 5-FAM/QXL® FRET substrate using a SensoLyte® 520 Sortase A Activity Assay Kit (Anaspec, San Jose, CA, USA). According to kit protocol, reactions were performed in a 96-well plate, with each well containing 10 μL test compound solution, 40 μL enzyme solution, and 50 μL sortase substrate solution. All compounds were dissolved in dimethyl sulfoxide (DMSO) and diluted with sterilized distilled water. The final concentration of DMSO was 1%. Each compound diluted in buffer to the tested concentration and was checked for intrinsic fluorescence. According to the kit protocol, we used the enzyme without the test compound as a control, a 1% DMSO control, and a substrate control. We used the kit inhibitor, 4-hydroxymercuribenzoic acid (HMB), as the positive control. Reactions were carried out for 1 h at room temperature and analyzed fluorometrically (SpectraMAX Gemini XS, CA, USA) at Ex/Em = 490 nm/520 nm. All reported values are the means of triplicate assays.

in vivo = details: in vivo
Method: (§1) The Daphnia magna test was performed in 4 mL 12-tissue culture wells, using 10 daphnids/well, with each sample being tested in duplicate. […] All experiments were conducted in the dark, in a plant growth chamber (Sanyo MLR-351 H, San Diego, CA, USA) at 25 ± 1 °C [32, 33].
(§2) Statistical analysis of the inhibitory effect on SrtA and the Daphnia magna bioassay was performed using GraphPad Prism version 5.01 software (GraphPad Software, Inc., La Jolla, CA, USA). A student’s t-test (p < 0.05) was applied in order to analyze the results obtained from replicates. […] The inhibition (I %) and lethality percentage (L %) values were calculated and plotted against the logarithm of concentrations and the corresponding curves were calculated using the least squares fit method. […] Whenever the obtained results permitted, the upper and lower limits of the 95% confidence interval (95% CI) and the correlation coefficient (r^2) were calculated.

Daphnia magna = assay: in vivo; details: in vivo
Method: as §1, §2

[1] = Solubility in water (observation during FRET testing)

T1 sequence (Q2FV99 whole entry): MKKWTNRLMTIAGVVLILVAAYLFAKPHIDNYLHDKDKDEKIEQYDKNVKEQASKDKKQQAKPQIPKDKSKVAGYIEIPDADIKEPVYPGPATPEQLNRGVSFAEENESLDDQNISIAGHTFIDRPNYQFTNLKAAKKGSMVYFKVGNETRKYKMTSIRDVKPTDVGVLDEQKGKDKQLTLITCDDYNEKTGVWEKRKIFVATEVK

| SMILES | SrtA inhibition (result in words) (SrtA) | inhibition at 10 µM (SrtA) [%] | LC50 at 24 h (in vivo) [µM] | LC50 at 48 h (in vivo) [µM] | Toxicity on Daphnia magna (result in words) (Daphnia magna) | Solubility in water (result in words) [1] | inhibition at 50 µM (SrtA) [%] |
| --- | --- | --- | --- | --- | --- | --- | --- |
| O=C(/C=C/C=C/c1ccc2c(c1)OCO2)N1CCCCC1 [Piperine] | statistically significant SrtA inhibition | 14.9 | 145 | 3.45 | high level of toxicity | low solubility in water; also recorded: low aqueous solubility |  |
| COc1cc([C@@H]2c3cc4c(cc3[C@H](O)[C@H]3COC(=O)[C@H]23)OCO4)cc(OC)c1OC [Podophyllotoxin] | statistically significant SrtA inhibition |  |  | 6.47 | high level of toxicity | low aqueous solubility | 26.4 |
